From PubChem BioAssay (NCI) come the findings set out here.

What all share (experiment): NCI tumour cell line growth inhibition, 48 h
The subject of assay [1] is MDA-MB-435.
The subject of assay [2] is U251 CNS.
Assay [3] relates to SF-268 CNS.
Assay [4] deals with OVCAR-8 ovarian.
Assay [5] relates to SW-620 colon.
Assay [6] relates to HOP-62 NSCLC.
The subject of assay [7] is SK-OV-3 ovarian.
Assay [8] deals with OVCAR-5 ovarian.
For assay [9], the system named is EKVX NSCLC.
For assay [10], the system named is SR leukemia.

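Cultured in 96-well plates, cells were exposed to test compound for 48 hours across five concentrations. GI50 marks 50% less growth. Definition used: TGI = concentration required for complete inhibition of growth.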

Turning to `O=C1CCC(N2C(=O)c3cccc(NCCOCCOCCNC(=O)c4cc5c(o4)C(=O)c4ccccc4C5=O)c3C2=O)C(=O)N1` (stereo not given), the GI50 in assay [1] was 1.23 µM; in assay [2], 1.72 µM; in [3], 2.18 µM; in assay [4] it was 2.04 µM; in assay [5], 1.95 µM; in assay [6], 1.84 µM. In addition, the GI50 in assay [7] is 3.09 µM; in assay [8], 1.67 µM; in [9] it was 2.62 µM; in assay [10], 1.76 µM. The TGI in assay [1] stood at 2.63 µM; in [2] it was 3.25 µM; in assay [3], 5.72 µM; in assay [4], 10.5 µM; in assay [5], 4.64 µM; in assay [6] it was 3.3 µM. The TGI stood at 7.78 µM in [7], 3.07 µM in assay [8], 8.39 µM in assay [9] and 22.9 µM in assay [10].
With `S=C1SCN(C2CCCCCCCCCCC2)CN1C1CCCCCCCCCCC1`, the TGI in assay [1], in [2], in assay [3], in [4], in assay [5] and in assay [6] was over 100 µM in each case. The TGI in [7], in [8], in assay [9] and in [10] was over 100 µM in each case.
`CN1CCN(Cc2ccc(NC(=O)c3cccc(C#Cc4c(N)ncc5ccc(F)cc45)c3)cc2C(F)(F)F)CC1`: the GI50 in assay [1] is 0.763 µM; in assay [2], 0.833 µM; in assay [3], 0.719 µM; in assay [4] it was 1.03 µM; in [5], 0.645 µM; in assay [6], 0.795 µM. For the same compound, the GI50 was 1.19 µM in assay [7], 0.849 µM in [8], 0.879 µM in [9] and 1.02 µM in assay [10]. Moreover, the TGI in assay [1] was 1.47 µM; in assay [2] it was 1.6 µM; in assay [3], 1.58 µM; in assay [4], 2.56 µM; in [5], 1.39 µM; in assay [6] it was 1.65 µM. The TGI amounted to 2.99 µM in assay [7], 1.76 µM in assay [8], 1.95 µM in [9] and 2.71 µM in [10].
Turning to `CC(C)Cc1ccc(C(C)/C=C2\CCC(CN3CCCCC3)C2=O)cc1` (stereo not given), the TGI in assay [1] was found to be 28.2 µM; in [2], 4.94 µM; in assay [3] it was 8.29 µM; in [4], 12.8 µM; in [5], 13.4 µM; in assay [6], 17.6 µM. The TGI in assay [7] came out at 34.9 µM; in assay [8], 31.6 µM; in [9], 21.1 µM; in assay [10], 8.23 µM.
As to `CNC(=S)N(C1CCCCC1)C1CCCCC1`, the TGI in [1], in assay [2], in assay [3], in assay [4], in [5] and in [6] was over 100 µM throughout. Further, the TGI in assay [7], in [8], in [9] and in assay [10] was over 100 µM each time.
In the case of `NC(Cc1c[nH]c2cc(F)ccc12)C(=O)O` (stereo not given), the GI50 in assay [1] was 840 µM; in [2] it was 872 µM; in assay [3], 1270 µM; in [4], 961 µM; in assay [5], 1480 µM; in [6], 961 µM. Also, the GI50 in [7] was 877 µM; in assay [8], 1090 µM; in assay [9], over 2500 µM; in assay [10] it was 1040 µM. The TGI in assay [1], in assay [2], in [3], in [4], in assay [5] and in [6] was over 2500 µM each time. Further, the TGI in [7], in assay [8], in assay [9] and in assay [10] was over 2500 µM each time.
`COC1C(O)CC(OC2CC(OC3CC(O[C@@H]4C(=O)c5c(cc6cc(OC7CC(OC8CC(O)C(O)C(C)O8)C(O)C(C)O7)c(C)c(O)c6c5O)CC4[C@H](OC)[C@@H](O)C(C)=O)OC(C)C3O)OC(C)C2O)OC1C` (stereo not given in full): the GI50 in [1] is 0.0156 µM; in [2], 0.0125 µM; in assay [3] it was 0.0155 µM; in [4], 0.0217 µM; in assay [5], 0.0125 µM; in assay [6] it was 0.0171 µM. Besides, the GI50 was 0.0211 µM in assay [7], 0.0309 µM in [8], 0.014 µM in [9] and 0.00624 µM in [10]. Further, the TGI in assay [1] was 7.07 µM; in assay [2] it was over 33.3 µM; in assay [3] it was over 33.3 µM; in assay [4] it was over 33.3 µM; in assay [5] it was over 33.3 µM; in [6], 0.154 µM. In addition, the TGI is over 33.3 µM in assay [7], over 33.3 µM in assay [8], over 33.3 µM in [9] and 1.65 µM in assay [10].
Turning to `COc1cc(=O)oc(/C=C/C=C/C=C/C(C)=C\C2(C)OC(C)C(C)(O)C2O)c1C` (stereo not given), the TGI in [1], in assay [2], in [3], in [4], in assay [5] and in [6] was over 100 µM throughout. Also, the TGI in [7], in [8], in [9] and in [10] was over 100 µM in each case.
`N#Cc1ccc(NC(=O)Nc2nc3ccc(OC(F)(F)F)cc3s2)cc1`: the GI50 in assay [1] is 1.42 µM; in assay [2], 1.43 µM; in [3], 3.06 µM; in assay [4], 2 µM; in [5], 1.61 µM; in [6], 2.52 µM. Further, the GI50 is 2.65 µM in assay [7], 4.28 µM in [8], 1.36 µM in assay [9] and 0.736 µM in [10]. The TGI in assay [1] was 6.79 µM; in [2], 11.4 µM; in [3], 16.8 µM; in assay [4], 9.91 µM; in [5], 12 µM; in [6] it was 8.12 µM. Further, the TGI in assay [7] amounted to 11.1 µM; in assay [8], 16.1 µM; in assay [9], 14.7 µM; in assay [10], 5.77 µM.
On to `O=S(=O)(NCCNc1cc(-c2cn(-c3ccccc3)nc2-c2cccc(O)c2)ccn1)c1ccc(Br)cc1`, for which the GI50 in [1] was 1.79 µM; in assay [2], 2.21 µM; in [3], 2.25 µM; in [4], 3.47 µM; in [5] it was 3.04 µM; in assay [6], 2.35 µM. For the same compound, the GI50 in [7] was 3.59 µM; in assay [8] it was 2.25 µM; in [9] it was 2.76 µM; in assay [10], 1.97 µM. Further, the TGI was 3.65 µM in [1]; 5.64 µM in [2]; 7.06 µM in assay [3]; 12.6 µM in [4]; 9.68 µM in [5]; 5.99 µM in assay [6]. Moreover, the TGI in [7] was 14.5 µM; in assay [8], 5.97 µM; in assay [9], 19.1 µM; in assay [10], 5.58 µM.
For the compound `CCCC(=O)Nc1c(I)cc(I)c(CC(CC)C(=O)O)c1I` (stereo not given), the GI50 in assay [1], in [2], in [3], in assay [4], in [5] and in assay [6] was over 100 µM each time. The GI50 in assay [7], in [8], in [9] and in assay [10] was over 100 µM throughout. Also, the TGI in assay [1], in assay [2], in assay [3], in [4], in assay [5] and in assay [6] was over 100 µM each time. For the same compound, the TGI in [7], in assay [8], in assay [9] and in assay [10] was over 100 µM in each case.
`COC(=O)CCCNC(=O)C(=O)c1c(O)c(O)c(C(C)C)c2cc(C)c(-c3c(C)cc4c(C(C)C)c(O)c(O)c(C(=O)C(=O)NCCCC(=O)OC)c4c3O)c(O)c12`: the GI50 is 1.06 µM in assay [1]; 0.298 µM in [2]; 0.435 µM in [3]; 0.604 µM in [4]; 0.74 µM in assay [5]; 0.942 µM in [6]. Moreover, the GI50 in assay [7] is 0.855 µM; in assay [8] it was 0.781 µM; in assay [9] it was 0.317 µM; in assay [10], 0.706 µM. Further, the TGI is 5.85 µM in assay [1]; 2.31 µM in [2]; 5.13 µM in [3]; 2.5 µM in [4]; 5.52 µM in assay [5]; 4.21 µM in assay [6]. For the same compound, the TGI in assay [7] was 2.57 µM; in [8], over 32.5 µM; in assay [9] it was 3.79 µM; in assay [10], 3.17 µM.
On to `CC1(C)OC2COC(c3[nH]nc4c(=O)[nH]c(=O)[nH]c34)C2O1` (stereo not given), for which the TGI in assay [1], in assay [2], in [3], in assay [4], in [5] and in assay [6] was over 100 µM throughout. Also, the TGI in assay [7], in [8], in assay [9] and in assay [10] was over 100 µM each time.
On to `CCN(CC)c1ccc(/C=N/NC(=O)c2ccccc2Nc2ccnc(C(F)(F)F)c2)c(O)c1`, for which the GI50 in [1] was 0.428 µM; in assay [2], 0.103 µM; in assay [3] it was 0.0942 µM; in assay [4], 0.22 µM; in assay [5], 0.407 µM; in assay [6], 0.121 µM. Also, the GI50 in [7] is 0.169 µM; in assay [8], 0.377 µM; in [9], 0.101 µM; in assay [10], 0.0721 µM. The TGI was over 100 µM in [1]; over 44.7 µM in assay [2]; over 100 µM in assay [3]; over 100 µM in assay [4]; over 100 µM in assay [5]; 5.35 µM in assay [6]. Moreover, the TGI is over 100 µM in [7], over 100 µM in assay [8], 4.35 µM in [9] and 0.728 µM in [10].
As for `C[C@H](C(O)CC(=O)C(C)(C)O)[C@H]1CC[C@@]2(C)[C@@H]3CC[C@H]4C(C)(C)[C@@H](OC5OC(COC6OC(CO)C(O)C(O)C6O)C(O)C(O)C5O)CC[C@]4(C)C3=CC[C@]12C` (stereo not given in full), the TGI in assay [1], in assay [2], in assay [3], in assay [4], in assay [5] and in [6] was over 100 µM each time. The TGI in assay [7], in assay [8], in assay [9] and in [10] was over 100 µM in each case.
As to `O=C(O)CNC(=O)C1NC(C(F)(F)F)(C(F)(F)F)OC1(C(F)(F)F)C(F)(F)F` (stereo not given), the TGI in assay [1], in assay [2], in [3], in assay [4], in [5] and in assay [6] was over 100 µM each time. In addition, the TGI in assay [7], in [8], in assay [9] and in assay [10] was over 100 µM throughout.
In the case of `Cc1ccc(-n2c3c(c4c(CN)c(O)ccc42)CCc2ccccc2C3=O)cc1`, the GI50 in assay [1] was 3 µM; in [2] it was 17.2 µM; in assay [3], 9.06 µM; in assay [4] it was 19.7 µM; in assay [5], 2.48 µM; in assay [6], 17.2 µM. The GI50 is 18.1 µM in assay [7], 15.8 µM in [8], 12.4 µM in assay [9] and 2.33 µM in assay [10]. The TGI in assay [1] came out at 8.87 µM; in assay [2], 32.5 µM; in [3], 28.3 µM; in [4] it was 38 µM; in assay [5], 8.19 µM; in assay [6], 31.7 µM. Also, the TGI in assay [7] came to 34.4 µM; in assay [8] it was 30.4 µM; in [9] it was 28.5 µM; in assay [10], 5.38 µM.
